Reference: patent US9657057B2, “Dipeptide and tripeptide epoxy ketone protease inhibitors” (Onyx Therapeutics, Inc., priority 2013, dated 2017)
Converted amounts (≈) assume the structure as drawn. “And” between values parts separate entries of the source, which are not always exact repeats. Equal entries are not always repeated.

Tests used:
[1] = molecular target: c20S (constitutive 20S proteasome) (Homo sapiens, UniProt P20618+P28074); test: 20S proteasome assay, chymotrypsin-like activity (LLVY), c20S; type: biochemical; settings: LLVY c20S Hu 1 h CONT: IC50 (nM), succinyl-Leu-Leu-Val-Tyr-AMC
From the text: (§1) Assay buffer consisted of TE buffer [20 mmol/L Tris (pH 8.0), 0.5 mmol/L EDTA] with (20S) or without (cell lysate) 0.03% SDS. Reactions were initiated by enzyme or lysate addition and monitored for AMC product formation at 27jC with a plate-based spectofluorometer (Tecan).

β5 = molecular target: T1, β5 (Homo sapiens, UniProt P20618+P28074); test: ProCISE proteasome subunit assay, β5; type: biochemical
T1 construct: endogenous in cells; host or cells: MOLT-4
Outline: (§2)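 MOLT-4 cell lysate was incubated with compound for 1 h at 25° C, then a subunit-binding probe was applied; probe-bound subunits were pulled down on streptavidin beads after guanidine denaturation and detected with subunit-specific antibodies by HRP chemiluminescence. Signal was normalized to protein and expressed as percent of DMSO control to fit IC50.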

LMP7 = molecular target: T2, LMP7 (Homo sapiens, UniProt P20618+P28062); test: ProCISE proteasome subunit assay, LMP7; type: biochemical
T2 construct: endogenous in cells; host or cells: MOLT-4
Outline: as §2

Solubility pH 7 = type: physicochemical; settings: pH 7, aqueous buffer
[2] = molecular target: i20S (20S immunoproteasome) (Homo sapiens, UniProt P20618+P28062); test: 20S proteasome assay, chymotrypsin-like activity (LLVY), i20S; type: biochemical; settings: LLVY i20S Hu 1 h CONT: IC50 (nM), succinyl-Leu-Leu-Val-Tyr-AMC
From the text: as §1

IC50 [1] | IC50 (β5; MOLT4 lysate Hu 1 h) [nM] | IC50 (LMP7; MOLT4 lysate Hu 1 h) [nM] | solubility (Solubility pH 7) [µg/mL] | IC50 [2] | IC50 (β5; ProCISE beta5 MOLT4 lysate Hu 1 h CONT: IC50 (nM)) [nM] | IC50 (LMP7; ProCISE LMP7 MOLT4 lysate Hu 1 h CONT: IC50 (nM)) [nM] | Structure (SMILES)
323 nM | 1160 | 75.7 | 776 (≈ 1420 µM) | 11.9 nM |  |  | COc1ccc(C[C@H](NC(=O)[C@@H](C)NC(=O)CC(C)(C)O)C(=O)N[C@@H](CC2CCCC2)C(=O)[C@@]2(C)CO2)cc1 [Compound C-2028, N—((R)-1-(((S)-1-(((S)-3-cyclopentyl-1-((R)-2-methyloxiran-2-yl)-1-oxopropan-2-yl)amino)-3-(4-methoxyphenyl)-1-oxopropan-2-yl)amino)-1-oxopropan-2-yl)-3-hydroxy-3-methylbutanamide]
785 nM | 2130 | 315 | 286 (≈ 502 µM) | 71.7 nM |  |  | COc1ccc(C[C@H](NC(=O)[C@@H](CO)NC(=O)c2cc(C)no2)C(=O)N[C@@H](CC2CCCC2)C(=O)[C@@]2(C)CO2)cc1 [Compound C-2030, N—((R)-1-(((S)-1-(((S)-3-cyclopentyl-1-((R)-2-methyloxiran-2-yl)-1-oxopropan-2-yl)amino)-3-(4-methoxyphenyl)-1-oxopropan-2-yl)amino)-3-hydroxy-1-oxopropan-2-yl)-3-methylisoxazole-5-carboxamide]
18300 nM | 26700 | 1450 | 41.7 (≈ 75.7 µM) | 763 nM |  |  | COc1ccc(C[C@H](NC(=O)[C@@H](C)NC(=O)c2ccccn2)C(=O)N[C@@H](CC2CCCC2)C(=O)[C@@]2(C)CO2)cc1 [Compound C-2031, N—((R)-1-(((S)-1-(((S)-3-cyclopentyl-1-((R)-2-methyloxiran-2-yl)-1-oxopropan-2-yl)amino)-3-(4-methoxyphenyl)-1-oxopropan-2-yl)amino)-1-oxopropan-2-yl)picolinamide]
1890 nM | 4050 | 452 | 172 (≈ 313 µM) | 107 nM |  |  | COc1ccc(C[C@H](NC(=O)[C@@H](C)NC(=O)c2cccnc2)C(=O)N[C@@H](CC2CCCC2)C(=O)[C@@]2(C)CO2)cc1 [Compound C-2032, N—((R)-1-(((S)-1-(((S)-3-cyclopentyl-1-((R)-2-methyloxiran-2-yl)-1-oxopropan-2-yl)amino)-3-(4-methoxyphenyl)-1-oxopropan-2-yl)amino)-1-oxopropan-2-yl)nicotinamide]
10100 nM | > 250000 | 46700 | 165 (≈ 299 µM) | 1450 nM |  |  | COc1ccc(C[C@H](NC(=O)[C@@H](C)NC(=O)c2ccncc2)C(=O)N[C@@H](CC2CCCC2)C(=O)[C@@]2(C)CO2)cc1 [Compound C-2033, N—((R)-1-(((S)-1-(((S)-3-cyclopentyl-1-((R)-2-methyloxiran-2-yl)-1-oxopropan-2-yl)amino)-3-(4-methoxyphenyl)-1-oxopropan-2-yl)amino)-1-oxopropan-2-yl)isonicotinamide]
15.3 nM | 21.1 | 13.2 | 3.1 (≈ 4.92 µM) | 4.6 nM |  |  | COc1ccc(C[C@H](NC(=O)[C@@H](NC(=O)OCc2ccccc2)C2COC2)C(=O)N[C@@H](Cc2ccccc2)C(=O)[C@@]2(C)CO2)cc1 [Compound C-2035, benzyl ((S)-2-(((S)-3-(4-methoxyphenyl)-1-(((S)-1-((R)-2-methyloxiran-2-yl)-1-oxo-3-phenylpropan-2-yl)amino)-1-oxopropan-2-yl)amino)-1-(oxetan-3-yl)-2-oxoethyl)carbamate]
6080 nM | 9630 | 466 | 3.6 (≈ 6.67 µM) | 891 nM |  |  | COc1ccc(C[C@H](NC(=O)[C@@H](C)NC(=O)C2=CCCC2)C(=O)N[C@@H](CC2CCCC2)C(=O)[C@@]2(C)CO2)cc1 [Compound C-2037, N—((R)-1-(((S)-1-(((S)-3-cyclopentyl-1-((R)-2-methyloxiran-2-yl)-1-oxopropan-2-yl)amino)-3-(4-methoxyphenyl)-1-oxopropan-2-yl)amino)-1-oxopropan-2-yl)cyclopent-1-enecarboxamide]
3550 nM and 7630 nM | 2700 | 286 | 1.8 (≈ 2.98 µM) | 722 nM and 649 nM |  |  | COc1ccc(C[C@H](NC(=O)[C@@H](C)NC(=O)c2nc3ccccc3n2C)C(=O)N[C@@H](CC2CCCC2)C(=O)[C@@]2(C)CO2)cc1 [Compound C-2038, N—((R)-1-(((S)-1-(((S)-3-cyclopentyl-1-((R)-2-methyloxiran-2-yl)-1-oxopropan-2-yl)amino)-3-(4-methoxyphenyl)-1-oxopropan-2-yl)amino)-1-oxopropan-2-yl)-1-methyl-1H-benzo[d]imidazole-2-carboxamide]
4610 nM | 3750 | 75 | 0.3 (≈ 0.499 µM) | 624 nM |  |  | COc1ccc(C[C@H](NC(=O)[C@@H](C)NC(=O)C2=C(C)c3ccccc3C2)C(=O)N[C@@H](CC2CCCC2)C(=O)[C@@]2(C)CO2)cc1 [Compound C-2040, N—((R)-1-(((S)-1-(((S)-3-cyclopentyl-1-((R)-2-methyloxiran-2-yl)-1-oxopropan-2-yl)amino)-3-(4-methoxyphenyl)-1-oxopropan-2-yl)amino)-1-oxopropan-2-yl)-3-methyl-1H-indene-2-carboxamide]
9450 nM | 5920 | 621 | 1830 (≈ 3450 µM) | 336 nM |  |  | COc1ccc(C[C@H](NC(=O)[C@@H](C)NC(=O)C[C@@H](C)O)C(=O)N[C@@H](CC2CCCC2)C(=O)[C@@]2(C)CO2)cc1 [Compound C-2042, (R)—N—((R)-1-(((S)-1-(((S)-3-cyclopentyl-1-((R)-2-methyloxiran-2-yl)-1-oxopropan-2-yl)amino)-3-(4-methoxyphenyl)-1-oxopropan-2-yl)amino)-1-oxopropan-2-yl)-3-hydroxybutanamide]
15100 nM | 11000 | 593 | 2380 (≈ 4480 µM) | 271 nM |  |  | COc1ccc(C[C@H](NC(=O)[C@@H](C)NC(=O)C[C@H](C)O)C(=O)N[C@@H](CC2CCCC2)C(=O)[C@@]2(C)CO2)cc1 [Compound C-2043, (S)—N—((R)-1-(((S)-1-(((S)-3-cyclopentyl-1-((R)-2-methyloxiran-2-yl)-1-oxopropan-2-yl)amino)-3-(4-methoxyphenyl)-1-oxopropan-2-yl)amino)-1-oxopropan-2-yl)-3-hydroxybutanamide]
1290 nM | 2940 | 220 | 160 (≈ 250 µM) | 102 nM |  |  | COc1ccc(C[C@H](NC(=O)[C@@H](CN2CCOCC2)NC(=O)c2cc(C)no2)C(=O)N[C@@H](CC2CCCC2)C(=O)[C@@]2(C)CO2)cc1 [Compound C-2045, N—((R)-1-(((S)-1-(((S)-3-cyclopentyl-1-((R)-2-methyloxiran-2-yl)-1-oxopropan-2-yl)amino)-3-(4-methoxyphenyl)-1-oxopropan-2-yl)amino)-3-morpholino-1-oxopropan-2-yl)-3-methylisoxazole-5-carboxamide]
411 nM |  |  | 1.4 (≈ 2.3 µM) | 55.2 nM | 379 | 48.6 | COc1ccc(C[C@H](NC(=O)[C@@H](C)NC(=O)C2=C(C)c3ccccc3C2)C(=O)N[C@@H](Cc2ccccc2)C(=O)[C@@]2(C)CO2)cc1 [Compound C-2048, N—((R)-1-(((S)-3-(4-methoxyphenyl)-1-(((S)-1-((R)-2-methyloxiran-2-yl)-1-oxo-3-phenylpropan-2-yl)amino)-1-oxopropan-2-yl)amino)-1-oxopropan-2-yl)-3-methyl-1H-indene-2-carboxamide]
